The structures appear in SMILES notation.

mouse TRPM3α2 (mTRPM3) ion channel, sequence (J9SQF3 other isoform, or with tags, fused parts or gaps): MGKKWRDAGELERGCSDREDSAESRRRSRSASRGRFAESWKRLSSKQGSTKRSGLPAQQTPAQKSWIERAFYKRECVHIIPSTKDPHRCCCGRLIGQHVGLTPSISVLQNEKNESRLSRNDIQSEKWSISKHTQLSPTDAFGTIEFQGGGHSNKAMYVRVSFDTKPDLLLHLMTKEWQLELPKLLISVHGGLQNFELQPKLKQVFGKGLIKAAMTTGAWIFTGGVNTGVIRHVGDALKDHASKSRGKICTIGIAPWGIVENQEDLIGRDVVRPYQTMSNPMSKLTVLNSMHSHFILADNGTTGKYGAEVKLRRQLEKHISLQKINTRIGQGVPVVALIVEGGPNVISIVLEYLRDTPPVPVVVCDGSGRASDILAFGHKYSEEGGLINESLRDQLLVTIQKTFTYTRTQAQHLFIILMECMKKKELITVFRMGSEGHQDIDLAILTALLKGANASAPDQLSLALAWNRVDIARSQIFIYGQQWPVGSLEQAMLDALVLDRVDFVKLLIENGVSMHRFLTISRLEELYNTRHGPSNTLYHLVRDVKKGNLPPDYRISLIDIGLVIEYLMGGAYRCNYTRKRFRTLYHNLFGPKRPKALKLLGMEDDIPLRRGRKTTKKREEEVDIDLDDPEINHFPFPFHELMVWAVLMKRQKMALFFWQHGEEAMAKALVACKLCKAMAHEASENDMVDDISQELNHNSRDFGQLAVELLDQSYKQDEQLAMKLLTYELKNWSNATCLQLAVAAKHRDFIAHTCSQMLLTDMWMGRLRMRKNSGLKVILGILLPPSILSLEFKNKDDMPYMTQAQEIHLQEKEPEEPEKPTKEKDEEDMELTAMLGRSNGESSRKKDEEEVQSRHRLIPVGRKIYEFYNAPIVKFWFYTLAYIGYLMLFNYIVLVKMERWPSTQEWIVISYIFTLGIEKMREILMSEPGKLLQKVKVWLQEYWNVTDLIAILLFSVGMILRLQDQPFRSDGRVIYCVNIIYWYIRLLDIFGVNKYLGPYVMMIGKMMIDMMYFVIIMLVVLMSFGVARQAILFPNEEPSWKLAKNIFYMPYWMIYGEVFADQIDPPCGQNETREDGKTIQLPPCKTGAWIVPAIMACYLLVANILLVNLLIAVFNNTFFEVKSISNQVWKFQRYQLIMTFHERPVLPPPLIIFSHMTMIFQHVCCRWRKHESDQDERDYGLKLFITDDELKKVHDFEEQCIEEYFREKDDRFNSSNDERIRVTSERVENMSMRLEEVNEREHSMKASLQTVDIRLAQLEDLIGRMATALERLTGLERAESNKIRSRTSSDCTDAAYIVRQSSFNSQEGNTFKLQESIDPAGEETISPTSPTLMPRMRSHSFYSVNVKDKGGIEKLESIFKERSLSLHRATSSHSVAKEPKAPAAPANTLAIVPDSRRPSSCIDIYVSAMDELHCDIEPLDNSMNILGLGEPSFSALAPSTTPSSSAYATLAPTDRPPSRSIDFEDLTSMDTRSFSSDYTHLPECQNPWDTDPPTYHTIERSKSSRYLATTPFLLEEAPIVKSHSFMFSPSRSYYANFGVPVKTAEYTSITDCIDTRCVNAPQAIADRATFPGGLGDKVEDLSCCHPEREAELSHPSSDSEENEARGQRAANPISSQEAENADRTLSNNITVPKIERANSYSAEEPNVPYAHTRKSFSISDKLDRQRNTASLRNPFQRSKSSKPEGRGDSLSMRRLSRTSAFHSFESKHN

The first assay addresses mouse TRPM3α2 (mTRPM3) ion channel (Mus musculus (Mouse), UniProt J9SQF3). The experiment in a line: TRPM3 ion channel driven Ca2+ uptake, Fluo-4 AM assay, mTRPM3alpha2 overexpressing flip-in HEK293 cells stimulated with pregnenolone sulfate. Format: cell-based. The conditions noted are these: PS (50 μM) stimulated, cpds. 500-599. On the procedure: Part B Monitoring the TRPM3 Ion Channel Driven Ca^2+ Uptake.
In order to monitor the inhibition of the mouse TRPM3α2 (mTRPM3) ion channel by the compounds of the invention, a cellular system making use of an mTRPM3alpha2 or hTRPM3 overexpressing cell line (flip-in HEK293) was used. The TRPM3 channel was stimulated/opened with Pregnenolone sulfate (PS) (50 μM) which results in Ca^2+ influx.
For mTRPM3, the intracellular Ca^2+ was measured with a Calcium responsive dye. Fluor-4 AM ester (Invitrogen). Cells were cultured until a confluence of 80-90%, washed with Versene (Invitrogen) and detached from the surface by a short incubation with 0.05% Trypsin (Invitrogen). The trypsination process was stopped by the addition of complete cell culture medium (DMEM, glutamax, 10% FCS,NEAA,Pen-Strep). Cells were collected and resuspended in Krebs buffer without Calcium at RT.
Prior the cell seeding (±2000 cells/well into a black, 384 well plate (Greiner)) the diluted compound was added in the assay plate, together with the PS dissolved in Krebs buffer containing Calcium. […] Directly after cell addition the plates were read on an Envision fluorescence reader (Perkin Elmer) by an Excitation of 485 nm and emission at 535 nm.
Channel inhibition was calculated compared to a non-PS stimulated control versus a condition stimulated with PS (50 μM) with vehicle. The ability of the compounds of the invention to inhibit this activity was determined as: Percentage inhibition=[1-((RFU determined for sample with test compound present—RFU determined for sample with positive control inhibitor) divided by (RFU determined in the presence of vehicle—RFU determined for sample with positive control inhibitor))]*100.
For the compound `Cc1oc2ccc(OCc3cnnn3C)cc2c1C(=O)NC1CCNCC1(F)F` (single isomer, unassigned) [cpd 541-En 1], the IC50 (as a rule, the concentration at which inhibition is half-maximal) was in the range of 1000 to 20000 nM.
Turning to `Cc1oc2ccc(OCc3cnnn3C)cc2c1C(=O)NC1CCNCC1(F)F` (single isomer, unassigned) [cpd 541-En 2], the IC50 is > 20000 nM.
`Cc1oc2ccc(OCc3ncn(C)n3)cc2c1C(=O)NC1CCNCC1(F)F` (single isomer, unassigned) [cpd 542-En 1] gave an IC50 of 1000 to 20000 nM.
On the same count and under the same terms, the figure for `Cc1oc2ccc(OCc3ncn(C)n3)cc2c1C(=O)NC1CCNCC1(F)F` (single isomer, unassigned) [cpd 542-En 2] is > 20000 nM; for `Cc1oc2ccc(OCc3ccnn3C)cc2c1C(=O)NC1CCNCC1(F)F` (single isomer, unassigned) [cpd 543-En 1] it is < 1000 nM.
On the same count and under the same terms, under `Cc1oc2ccc(OCc3cccc(=O)n3C)cc2c1C(=O)NC1CCNCC1(F)F` (single isomer, unassigned) [cpd 545-En 1] stands 1000 to 20000 nM.
The same measure, in the same setting: under `Cc1oc2ccc(OCc3cccnc3C(F)(F)F)cc2c1C(=O)NC1CCNCC1(F)F` (single isomer, unassigned) [cpd 546-En 1] stands < 1000 nM; under `Cc1ncccc1COc1ccc2oc(C)c(C(=O)NC3CCNCC3(F)F)c2c1` (single isomer, unassigned) [cpd 547-En 1], < 1000 nM; under `Cc1nccc(COc2ccc3oc(C)c(C(=O)NC4CCNCC4(F)F)c3c2)n1` (single isomer, unassigned) [cpd 548-En 1], 1000 to 20000 nM.
Turning to `Cc1nccc(COc2ccc3oc(C)c(C(=O)NC4CCNCC4(F)F)c3c2)n1` (single isomer, unassigned) [cpd 548-En 2], the IC50 was > 20000 nM.
The same measure, in the same setting: the figure for `Cc1ncc(COc2ccc3oc(C)c(C(=O)NC4CCNCC4(F)F)c3c2)s1` (single isomer, unassigned) [cpd 549-En 1] is < 1000 nM.
On the same count and under the same terms, under `Cc1ncc(COc2ccc3oc(C)c(C(=O)NC4CCNCC4(F)F)c3c2)s1` (single isomer, unassigned) [cpd 549-En 2] stands 1000 to 20000 nM.
On the same count and under the same terms, the figure for `Cc1oc2ccc(OCC3(C)COC3)cc2c1C(=O)NC1CCNCC1(F)F` (single isomer, unassigned) [cpd 550-En 1] is 1000 to 20000 nM; for `Cc1coc(COc2ccc3oc(C)c(C(=O)NC4CCNCC4(F)F)c3c2)n1` (single isomer, unassigned) [cpd 551-En 1] it is < 1000 nM.
`Cc1coc(COc2ccc3oc(C)c(C(=O)NC4CCNCC4(F)F)c3c2)n1` (single isomer, unassigned) [cpd 551-En 2] showed an IC50 of 1000 to 20000 nM.
Same read-out and setting: under `Cc1csc(COc2ccc3oc(C)c(C(=O)NC4CCNCC4(F)F)c3c2)n1` (single isomer, unassigned) [cpd 552-En 1] stands < 1000 nM; under `Cc1csc(COc2ccc3oc(C)c(C(=O)NC4CCNCC4(F)F)c3c2)n1` (single isomer, unassigned) [cpd 552-En 2], 1000 to 20000 nM; under `Cc1cc(COc2ccc3oc(C)c(C(=O)NC4CCNCC4(F)F)c3c2)no1` (single isomer, unassigned) [cpd 553-En 1], < 1000 nM.
The same measure, in the same setting: the figure for `Cc1cc(COc2ccc3oc(C)c(C(=O)NC4CCNCC4(F)F)c3c2)no1` (single isomer, unassigned) [cpd 553-En 2] is 1000 to 20000 nM; for `Cc1cnc(COc2ccc3oc(C)c(C(=O)NC4CCNCC4(F)F)c3c2)cn1` (single isomer, unassigned) [cpd 554-En 1] it is < 1000 nM; for `Cc1cnc(COc2ccc3oc(C)c(C(=O)NC4CCNCC4(F)F)c3c2)cn1` (single isomer, unassigned) [cpd 554-En 2] it is > 20000 nM.
`Cc1cnc(COc2ccc3oc(C)c(C(=O)NC4CCNCC4(F)F)c3c2)s1` (single isomer, unassigned) [cpd 555-En 1]: the IC50 was < 1000 nM.
The same measure, in the same setting: under `Cc1cnc(COc2ccc3oc(C)c(C(=O)NC4CCNCC4(F)F)c3c2)s1` (single isomer, unassigned) [cpd 555-En 2] stands 1000 to 20000 nM; under `Cc1ccc(COc2ccc3oc(C)c(C(=O)NC4CCNCC4(F)F)c3c2)nn1` (single isomer, unassigned) [cpd 556-En 1], 1000 to 20000 nM.
The same measure, in the same setting: the figure for `Cc1ccc(COc2ccc3oc(C)c(C(=O)NC4CCNCC4(F)F)c3c2)nn1` (single isomer, unassigned) [cpd 556-En 2] is > 20000 nM; for `Cc1oc2ccc(OCc3cccnn3)cc2c1C(=O)NC1CCNCC1(F)F` (single isomer, unassigned) [cpd 557-En 1] it is < 1000 nM.
On the same count and under the same terms, under `Cc1oc2ccc(OCc3cccnc3)cc2c1C(=O)NC1CCNCC1(F)F` (single isomer, unassigned) [cpd 558-En 1] stands < 1000 nM; under `Cc1oc2ccc(OCc3ncccn3)cc2c1C(=O)NC1CCNCC1(F)F` (single isomer, unassigned) [cpd 559-En 1], 1000 to 20000 nM; under `Cc1oc2ccc(OCc3ncccn3)cc2c1C(=O)NC1CCNCC1(F)F` (single isomer, unassigned) [cpd 559-En 2], > 20000 nM.
On to `Cc1oc2ccc(OCc3nccs3)cc2c1C(=O)NC1CCNCC1(F)F` (single isomer, unassigned) [cpd 560-En 1], for which the IC50 was < 1000 nM.
For `Cc1oc2ccc(OCc3nccs3)cc2c1C(=O)NC1CCNCC1(F)F` (single isomer, unassigned) [cpd 560-En 2], the IC50 is < 1000 nM.
Still for that read-out and setting: under `Cc1oc2ccc(OCc3cncs3)cc2c1C(=O)NC1CCNCC1(F)F` (single isomer, unassigned) [cpd 561-En 1] stands < 1000 nM.
Same read-out and setting: under `Cc1ncsc1COc1ccc2oc(C)c(C(=O)NC3CCNCC3(F)F)c2c1F` (single isomer, unassigned) [cpd 562-En 1] stands < 1000 nM; under `Cc1nc(C)c(COc2ccc3oc(C)c(C(=O)NC4CCNCC4(F)F)c3c2)s1` (single isomer, unassigned) [cpd 563-En 1], < 1000 nM; under `Cc1oc2ccc(OCc3cccnc3O)cc2c1C(=O)NC1CCNCC1(F)F` (single isomer, unassigned) [cpd 564-En 1], < 1000 nM.
Still for that read-out and setting: the figure for `COc1ncccc1COc1ccc2oc(C)c(C(=O)NC3CCNCC3(F)F)c2c1` (single isomer, unassigned) [cpd 565-En 1] is < 1000 nM; for `COc1ncccc1COc1ccc2oc(C)c(C(=O)NC3CCNCC3(F)F)c2c1` (single isomer, unassigned) [cpd 565-En 2] it is < 1000 nM.
Consider `Cc1oc2ccc(OCc3ncccc3F)cc2c1C(=O)NC1CCNCC1(F)F` (single isomer, unassigned) [cpd 566-En 1], for which the IC50 was < 1000 nM.
The same measure, in the same setting: under `Cc1oc2ccc(OCc3ncccc3F)cc2c1C(=O)NC1CCNCC1(F)F` (single isomer, unassigned) [cpd 566-En 2] stands 1000 to 20000 nM; under `Cc1oc2ccc(OCc3ccc(OCCO)cn3)cc2c1C(=O)NC1CCNCC1(F)F` (single isomer, unassigned) [cpd 567-En 1], > 20000 nM.
As to `Cc1oc2ccc(OCc3ccc(F)cn3)cc2c1C(=O)NC1CCNCC1(F)F` (single isomer, unassigned) [cpd 568-En 1], the half-inhibitory concentration (IC50) is < 1000 nM.
The same measure, in the same setting: the figure for `Cc1oc2ccc(OCc3ccc(F)cn3)cc2c1C(=O)NC1CCNCC1(F)F` (single isomer, unassigned) [cpd 568-En 2] is 1000 to 20000 nM; for `COc1cccc(COc2ccc3oc(C)c(C(=O)NC4CCNCC4(F)F)c3c2)n1` (single isomer, unassigned) [cpd 570-En 1] it is < 1000 nM.
Same read-out and setting: under `COc1cccc(COc2ccc3oc(C)c(C(=O)NC4CCNCC4(F)F)c3c2)n1` (single isomer, unassigned) [cpd 570-En 2] stands 1000 to 20000 nM; under `Cc1oc2ccc(OCc3ccc4nccn4c3)cc2c1C(=O)NC1CCNCC1(F)F` (single isomer, unassigned) [cpd 571-En 1], 1000 to 20000 nM; under `Cc1ncsc1COc1cc2c(C(=O)NC3CCNCC3(F)F)c(C)oc2cc1F` (single isomer, unassigned) [cpd 572-En 1], < 1000 nM.
Same read-out and setting: the figure for `Cc1ncsc1COc1cc(F)c2oc(C)c(C(=O)NC3CCNCC3(F)F)c2c1` (single isomer, unassigned) [cpd 573-En 1] is < 1000 nM; for `Cc1ncsc1COc1cc(F)c2oc(C)c(C(=O)NC3CCNCC3(F)F)c2c1` (single isomer, unassigned) [cpd 573-En 2] it is 1000 to 20000 nM.

The same assay, now with this note: PS (50 μM) stimulated, cpds. 608-666.
Regarding `Cc1oc2ccc(OCc3nccn3C)cc2c1C(=O)NC1CNCCC1(F)F` (single isomer, unassigned) [cpd 635-En 1], the IC50 was < 1000 nM.
On the same count and under the same terms, the figure for `Cc1oc2ccc(OCc3nccn3C)cc2c1C(=O)NC1CNCCC1(F)F` (single isomer, unassigned) [cpd 635-En 2] is 1000 to 20000 nM; for `Cc1oc2ccc(OCc3ccnn3C)cc2c1C(=O)NC1CNCCC1(F)F` (single isomer, unassigned) [cpd 636-En 1] it is < 1000 nM.
Still for that read-out and setting: the figure for `Cc1oc2ccc(OCc3cccnc3O)cc2c1C(=O)NC1CNCCC1(F)F` (single isomer, unassigned) [cpd 637-En 1] is < 1000 nM.

Values taken from patent publication US12209081B2 (Katholieke Universiteit Leuven, priority 2020, dated 2025).
